Assay: solvent given as SMILES

Cc1cc(C)cc(NC(=O)c2sc(Br)nc2C)c1
absorption maximum (in C1CCOC1): 293.4 nm
absorption maximum (in CC#N): 285 nm
absorption maximum (in CCCCCC): 280.5 nm
absorption maximum (in CCOC(C)=O): 282.5 nm
absorption maximum (in CN(C)C=O): 285.3 nm
absorption maximum (in CO): 271.5 nm
absorption maximum (in CS(C)=O): 283.1 nm
absorption maximum (in ClC(Cl)Cl): 278 nm

CCN1c2ccccc2Sc2cc(/C=C(\C#N)c3ccccc3)ccc21
absorption maximum (in C1CCOC1): 411 nm
absorption maximum (in CC#N): 409 nm
absorption maximum (in CC(C)=O): 410 nm
absorption maximum (in CN(C)C=O): 414 nm
absorption maximum (in CS(C)=O): 418 nm
absorption maximum (in Cc1ccccc1): 412 nm
absorption maximum (in ClCCl): 413 nm

CCCCOc1cc(C=C2c3ccccc3-c3ccccc32)c(OCCCC)cc1C=C1c2ccccc2C=Cc2ccccc21
absorption maximum (in C1CCOC1): 395 nm

c1cc2ccc3ccc4cc3c2cc1c1ccc2ccc3ccc(cc3c2c1)c1ccc2c(c1)c1cc4ccc1[C@]13OCCO[C@]21OCCO3
absorption maximum (in Cc1ccccc1): 366 nm

CCCC1=Cc2nc1ccc1[nH]c(cc1CCC)c1nc(c(NC(C)=O)cc3[nH]c2cc3CCC)C(CCC)=C1
absorption maximum (in Cc1ccccc1): 639 nm

COc1cccc(C2=c3c(c4ccc(C(C)(C)C)cc4c4cc(C(C)(C)C)ccc34)=[N+]3C2=C(c2ccccc2)c2c(-c4cccc(OC)c4)c4c5ccc(C(C)(C)C)cc5c5cc(C(C)(C)C)ccc5c4n2[B-]3(F)F)c1
absorption maximum (in C1CCCCC1): 680 nm
absorption maximum (in C1CCOC1): 677 nm
absorption maximum (in CC#N): 670 nm
absorption maximum (in Cc1ccccc1): 682 nm
absorption maximum (in ClCCl): 677 nm

COc1ccc2c(CC(=O)NN)coc2c1
absorption maximum (in C1CCOC1): 290 nm
absorption maximum (in CC#N): 290 nm
absorption maximum (in CC(C)=O): 298 nm
absorption maximum (in CCCCO): 278 nm
absorption maximum (in CCCO): 289 nm
absorption maximum (in CCO): 291 nm
absorption maximum (in CCOC(C)=O): 300 nm
absorption maximum (in CN(C)C=O): 288 nm
absorption maximum (in CO): 290 nm
absorption maximum (in ClCCl): 287 nm

COc1ccc(/C=C/C2=[O+][B-](F)(F)OC(/C=C/c3ccc(OC)c4ccccc34)=C2c2ccccc2)c2ccccc12
absorption maximum (in CC#N): 550 nm
absorption maximum (in CC(C)=O): 549 nm
absorption maximum (in CCOC(C)=O): 542 nm
absorption maximum (in CCOCC): 540 nm
absorption maximum (in ClC(Cl)(Cl)Cl): 542 nm
absorption maximum (in ClCCl): 556 nm

c1ccc2c(c1)Cc1ccccc1N2c1c2ccccc2c(N2c3ccccc3Cc3ccccc32)c2ccccc12
absorption maximum (in Cc1ccccc1): 440 nm

Cc1c2ccc(=[N+]3CCCCC3)cc-2oc2cc(N3CCCCC3)ccc12
absorption maximum (in ClCCl): 555 nm

CN(C)c1ccc(C#Cc2cc3ccccc3oc2=O)cc1
absorption maximum (in ClCCl): 406 nm

F[B-]1(F)n2c(-c3ccccc3)cnc2-c2cccc[n+]21
absorption maximum (in C1CCCCC1): 412 nm
absorption maximum (in C1CCOC1): 394 nm
absorption maximum (in C1COCCO1): 394 nm
absorption maximum (in CC#N): 384 nm
absorption maximum (in CCCCCC): 412 nm
absorption maximum (in CO): 382 nm
absorption maximum (in ClC(Cl)Cl): 369 nm

COC(=O)c1ccc(/C=C2\C=C(c3ccccc3)OC2=O)cc1
absorption maximum (in C1COCCO1): 401 nm

C[Si]1(C)c2ccc(-c3ccc(N(c4ccccc4)c4ccccc4)cc3)cc2C=Cc2cc(-c3ccc(N(c4ccccc4)c4ccccc4)cc3)ccc21
absorption maximum (in ClCCl): 390 nm

C(=C\c1ccc(/C=C/c2cccs2)s1)/c1cccs1
absorption maximum (in CC#N): 423 nm

COc1ccc(O)c(-c2[nH]c(=O)n3c2-c2ccccc2C3=O)c1
absorption maximum (in CC#N): 395 nm
absorption maximum (in CO): 401 nm
absorption maximum (in ClCCl): 399 nm

COC(=O)C1=C(C(=O)OC)C2(c3cc(Cl)ccc3-c3c(Cl)cc(Cl)cc32)C2(/C=C/c3ccccc3)c3cc(OC)c(OC)cc3CCN12 (configuration not stated)
absorption maximum (in ClCCl): 327 nm

CCN(CC)c1ccc(-c2nc3c(nc2-c2ccc(B(c4c(C)cc(C)cc4C)c4c(C)cc(C)cc4C)cc2)c2ccccc2n3C)cc1
absorption maximum (in C1CCOC1): 405 nm

CCOC(=O)CN1C(=O)C2=C(c3ccc(C#N)cc3)N(CC(=O)OCC)C(=O)C2=C1c1ccc(C#N)cc1
absorption maximum (in CC#N): 473 nm
absorption maximum (in CS(C)=O): 480 nm
absorption maximum (in Cc1ccccc1): 482 nm

COc1ccc(C(=O)OCc2ccc3c4cccc5cccc(c6cccc2c63)c54)cc1
absorption maximum (in CCO): 439 nm

CC1(C)C2=C(c3ccccc31)S(=O)(=O)c1ccccc12
absorption maximum (in ClCCl): 355 nm
